{"source": "paper PMC11878344", "about": "(Angewandte Chemie (International Ed. in English), 2025)", "key": {"MAGL": {"tested_on": "MAGL", "parameters": "method as in PMID 35089028, PMID 34764251, PMID 34328319, PMID 29498843", "details": "known MAGL ligands of Figure 1; cited from earlier work"}, "[1]": {"tested_on": "primary hippocampal neurons", "assay": "Confocal imaging of live primary hippocampal neuron cultures", "assay_type": "cell-based, mouse", "details": "inhibitor 10 μM, 2 h before labeling; p <0.01", "procedure": "MAGL plays a vital role in neuronal inflammation[24, 66, 67] and the integrity of the blood–brain barrier.[68, 69] Therefore, we investigated the imaging capability of the probes in live dissociated primary hippocampal neuron cultures (Figure 6 C) as a prime model system in CNS research, particularly in the context of its role in shaping neurotransmitter release and synaptic plasticity properties.[70] Confocal microscopic imaging of the live cultures, at day 14–21 in vitro, was performed on cells treated with probe 9 (1 μM) and the particularly bright silicon‐rhodamine (SiR) probes 10 and 12 (0.5 μM) at 37 °C for 15 min, all of them producing a strong fluorescent signal. […] We observed an accumulation of the fluorescent signal in neuronal varicosities with a distribution that is reminiscent of that of synapses, indicating the localization of MAGL.\nHippocampal Neurons Staining\nPreparation of primary neuron cultures. For neuron culture, glass coverslips (19 mm, #1.5\nEpredia Deckgläser, CB00190RAC20MNZ0) were coated with PLL (Sigma-Aldrich, P4707; 1:12\ndilution) in phosphate-buffered saline (PBS) for 2h at 37 °C. Hippocampal neurons were then […]\nmicroscope for a maximum of 30 min. Images were then analyzed using FIJI. […]\nanalysis. The protein was analyzed using a Waters H-class instrument equipped with a quaternary […]"}, "HT-29 cells": {"tested_on": "HT-29 cells", "assay": "Confocal live cell imaging of HT-29 cells", "assay_type": "cell-based", "details": "inhibitor 10 μM; probe 9 0.15 μM", "source_text": "The enzymatic activity of MAGL plays a critical role in cancer lipid metabolism and is overexpressed in several particularly aggressive cancer cell lines.[56] Therefore, the expression levels of MAGL are considered a prognostic biomarker for the degree of cancer tumor differentiation and progression.[57] Here the colon cancer HT‐29 cell line is one of the prototypical systems regarding the impact of MAGL in proliferating and invasive cancer.[45, 58, 59] We studied the ability of probes 8–12 to detect MAGL by confocal imaging microscopy (Figure 6 A). Consistent staining of MAGL could be achieved with all optimized probes 8–12 carrying NBD, BODIPY, and SiR, respectively, providing a bright and stable fluorescent signal in live cancer cells. […]\nFor ABPP experiments, cell lysates containing equal amounts of protein were incubated with the appropriate concentration of activity-based probe for 30 min at room temperature. […] Samples were then separated by SDS-PAGE and bands were detected ChemiDoc Imager (Bio-Rad Laboratories). […] Gels were imaged and protein bands were quantified using Image Lab software (Bio-Rad Laboratories).\nFluorescence confocal microscopy. […]\nConfocal live cell image acquisition. […] The probe fluorescence was monitored by kinetic measurements of 10 min with a break for probe administration. The fluorescence of one image per sample was captured at each time point. […]"}}}
{"molecule": "O=C(OC(CO)C(F)(F)F)N1CC2C(C1)C2c1ccn(-c2ccc(F)cc2)n1", "note": "(stereo not drawn) [PF-06795071]", "values": [{"measurement": "IC50", "setting": "MAGL", "result": 3, "unit": "nM"}, {"measurement": "Effect of pre-incubation on MAGL probe labeling", "setting": "[1]", "result": "strong decrease in mean fluorescent intensity"}, {"measurement": "Effect of pre-incubation on probe 9 fluorescent signal", "setting": "HT-29 cells", "result": "completely suppressed the fluorescent signal"}]}
